Assay results published in article PMC3692405, “Disease-associated mutations in CNGB3 promote cytotoxicity in photoreceptor-derived cells” (Molecular Vision, 2013).
Where two headings read alike, the source gives them in different places.

Target: T1, WT human CNGA3 plus WT CNGB3 heteromeric channels (Homo sapiens, UniProt Q16281+Q9NQW8)
T1 construct: expressed in transfected cells; host or cells: Xenopus laevis oocytes injected with cRNA transcribed from pGEMHE constructs
T1 sequence (Q16281 1-694): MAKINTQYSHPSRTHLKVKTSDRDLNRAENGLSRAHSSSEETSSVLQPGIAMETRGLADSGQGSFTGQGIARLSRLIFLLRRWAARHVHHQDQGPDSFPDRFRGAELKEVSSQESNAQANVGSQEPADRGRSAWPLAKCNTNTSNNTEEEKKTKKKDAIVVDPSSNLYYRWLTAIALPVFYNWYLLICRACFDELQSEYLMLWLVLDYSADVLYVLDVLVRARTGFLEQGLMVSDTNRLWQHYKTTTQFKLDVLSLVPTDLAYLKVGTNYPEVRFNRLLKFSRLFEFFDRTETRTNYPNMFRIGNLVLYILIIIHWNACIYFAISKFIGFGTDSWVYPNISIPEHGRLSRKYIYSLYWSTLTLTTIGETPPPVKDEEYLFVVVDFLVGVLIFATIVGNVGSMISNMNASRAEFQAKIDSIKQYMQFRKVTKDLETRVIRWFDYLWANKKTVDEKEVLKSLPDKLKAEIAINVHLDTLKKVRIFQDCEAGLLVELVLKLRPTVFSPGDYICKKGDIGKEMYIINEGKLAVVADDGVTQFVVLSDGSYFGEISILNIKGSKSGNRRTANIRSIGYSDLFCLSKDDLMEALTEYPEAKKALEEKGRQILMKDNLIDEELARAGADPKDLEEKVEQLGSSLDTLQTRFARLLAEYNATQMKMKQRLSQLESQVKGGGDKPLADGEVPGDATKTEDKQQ
T1 sequence (Q9NQW8 1-809): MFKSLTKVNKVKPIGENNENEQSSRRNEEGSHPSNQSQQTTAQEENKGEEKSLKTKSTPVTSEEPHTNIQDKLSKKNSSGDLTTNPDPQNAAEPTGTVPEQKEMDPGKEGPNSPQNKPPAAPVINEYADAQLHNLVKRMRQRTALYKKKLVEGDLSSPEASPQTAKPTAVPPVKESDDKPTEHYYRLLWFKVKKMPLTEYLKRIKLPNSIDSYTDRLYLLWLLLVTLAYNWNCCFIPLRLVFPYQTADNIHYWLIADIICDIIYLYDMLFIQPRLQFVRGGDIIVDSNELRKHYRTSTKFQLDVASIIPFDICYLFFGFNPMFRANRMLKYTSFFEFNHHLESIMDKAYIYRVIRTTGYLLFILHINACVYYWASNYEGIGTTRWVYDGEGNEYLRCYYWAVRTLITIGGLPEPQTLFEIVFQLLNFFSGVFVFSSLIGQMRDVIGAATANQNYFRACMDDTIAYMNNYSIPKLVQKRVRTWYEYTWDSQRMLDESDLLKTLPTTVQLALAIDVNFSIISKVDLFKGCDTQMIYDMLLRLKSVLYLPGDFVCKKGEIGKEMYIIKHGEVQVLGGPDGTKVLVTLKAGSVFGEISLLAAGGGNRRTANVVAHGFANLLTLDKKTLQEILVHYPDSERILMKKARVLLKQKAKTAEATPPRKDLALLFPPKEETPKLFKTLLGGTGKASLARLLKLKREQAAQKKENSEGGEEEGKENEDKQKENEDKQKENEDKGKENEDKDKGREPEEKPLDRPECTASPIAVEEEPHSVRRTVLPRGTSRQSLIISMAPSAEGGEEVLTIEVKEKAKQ
Test: Inside-out patch-clamp recording of channels expressed in Xenopus oocytes (WT heteromeric)
Type: biochemical
Description: For heterologous expression in Xenopus laevis oocytes, identical amounts of cDNA were linearized using SphI or NheI, and capped cRNA was transcribed in vitro using the T-7 RNA polymerase mMESSAGE mMACHINE® kit (Ambion, Austin, TX). cRNA concentrations and relative amounts were determined by denaturing gel electrophoresis and KODAK 1D image analysis software (Rochester, NY), as well as by spectrophotometry. […] Oocytes were incubated in ND96 (96 mM NaCl, 2 mM KCl, 1.8 mM CaCl2, 1 mM MgCl2, and 5 mM HEPES, pH 7.6, supplemented with 10 μg/ml gentamycin).
Two to seven days after microinjection of cRNA, patch-clamp experiments were performed using the inside-out configuration with an Axopatch 200B amplifier (Axon Instruments, Foster City, CA). Recordings were made at 20–23 °C. Data were acquired using Pulse software (HEKA Elektronik, Lambrecht, Germany). Current traces were elicited by voltage steps from a holding potential of 0 mV to +80 mV, then to −80 mV and back to 0 mV. Initial pipette resistances were 0.4–0.8 megaohms. Intracellular and extracellular solutions contained 130 mM NaCl, 0.2 mM EDTA, and 3 mM HEPES (pH 7.2). Intracellular solutions were exchanged using an RSC-160 rapid solution changer (Molecular Kinetics, Indianapolis, IN). Currents in the absence of cyclic nucleotides were subtracted. For channel activation by CPT-cGMP or CPT-cAMP, dose–response data were fitted with the Hill equation, I/Imax=([cNMP]^h/(K1/2^h + [cNMP]^h)), where I is the current amplitude at +80 mV, Imax is the maximum current elicited by saturating concentration of ligand, [cNMP] is the ligand concentration, K1/2 is the apparent ligand affinity, and h is the Hill slope. We measured sensitivity to block by L-cis-diltiazem (RBI, Natick, MA) applied to the intracellular face of the patch in the presence of 0.1 μM CPT-cGMP. Data were fit with a modified Hill equation in the form I blocker/I=(K1/2^h/(K1/2^h + [blocker]^h)). Data were analyzed using Igor (Wavemetrics, Lake Oswego, OR), SigmaPlot, and SigmaStat (Systat Software Inc., San Jose, CA). All values are reported as the mean±standard error of the mean of n experiments unless otherwise indicated. Statistical significance was determined using a Student t test or Mann–Whitney rank sum test, and a p value of <0.05 was considered significant.

Row | Structure (SMILES) | relative agonist efficacy Imax, CPT-cAMP/Imax, CPT-cGMP (+80 mV, CPT-cAMP 100 μM vs CPT-cGMP 4 μM, mean±SEM, n=10) | Hill slope h, CPT-cAMP activation (Hill fit, mean±SEM, n=10) | EC50 (Hill fit, mean±SEM, n=10, read-out: apparent affinity K1/2, CPT-cAMP (channel activation)) | Hill slope h, CPT-cAMP, representative dose-response (representative patch, Figure 5A) | EC50 (representative patch, Figure 5A, read-out: K1/2,CPT-cAMP, representative dose-response) | Hill slope h, CPT-cGMP activation (+80 mV, Hill fit, mean±SEM, n=13) | EC50 (+80 mV, Hill fit, mean±SEM, n=13, read-out: apparent CPT-cGMP affinity K1/2, CPT-cGMP (channel activation)) | maximum patch current density (Imax/area) (+80 mV, saturating CPT-cGMP (4 μM), mean±SEM, n=13) | Hill slope h, CPT-cGMP, representative dose-response (representative patch, Figure 1B) | EC50 (representative patch, Figure 1B, read-out: K1/2,CPT-cGMP, representative dose-response) | potency relative to unmodified cGMP for channel activation (unmodified cGMP values from refs 19, 26)
1 | Nc1ncnc2c1nc(Sc1ccc(Cl)cc1)n2[C@@H]1O[C@@H]2COP(=O)(O)O[C@H]2[C@H]1O [CPT-cAMP, CPT-adenosine 3′,5′-cyclic monophosphate] | 0.25±0.03 | 1.7±0.1 | 28.1 ± 2.6 µM | 1.4 | 28.3 µM | – | – | – | – | – | –
2 | Nc1nc2c(nc(Sc3ccc(Cl)cc3)n2[C@@H]2O[C@@H]3COP(=O)(O)O[C@H]3[C@H]2O)c(=O)[nH]1 [CPT-cGMP, 8-(4-chlorophenylthio) guanosine 3′,5′-cyclic monophosphate] | – | – | – | – | – | 1.5±0.05 | 0.254 ± 0.0181 µM | 55.1±10.9 pA/μm^2 | 1.5 | 0.248 µM | 80–100 fold
